Experiments:
[1] = test system: 10-year old nectarine trees, cultivar "Zephyr" grafted on the GF677 root stock; assay: Field test, testing field No. 1: SPAD index; assay type: in vivo
Description: (§1) The comparison included two chelate agents for supplementing iron deficiencies: HBED/Fe^3+ as well as the commercially available, highly purified EDDHA/Fe^3+. The studies were carried out on two fields with the soil having an alkaline pH as well as a high concentration of calcium ions. The chelates were applied directly to the soil by means of a dripper immersed in the soil.
10-year old nectarine trees, cultivar “Zephyr” grafted on the GF677 root stock
The chelates were applied at the following concentrations: • EDDHA/Fe^3+: high concentration (0.9 g of the chelated Fe/tree) • HBED/Fe^3+: low concentration (0.45 g of the chelated Fe/tree) • HBED/Fe^3+: high concentration (0.9 g of the chelated Fe/tree) • control trial: without Fe
The chelate solutions of various concentrations were applied in three portions (50%, 30%, and finally 20% of the whole dose, respectively) directly to the ground below the dripper.
The SPAD index was measured approximately every two weeks: on day 14, 29, 44, 61, 88 and 99 after application of the chelates.

[2] = test system: 7-year old trees of flat peach (Prunus persica var. platycarpa) grafted on the GF677 root stock with visible symptoms of chlorosis; assay: Field test, testing field No. 2: SPAD index of leaves; assay type: in vivo; settings: for ΔSPAD index of leaves: 0.9 g of the chelated Fe/tree
Description: as §1
7-year old trees of flat peach (Prunus persica var. platycarpa) grafted on the GF677 root stock with visible symptoms of chlorosis
The chelates were applied at the following concentrations: • EDDHA/Fe^3+: high concentration (0.9 g of the chelated Fe/tree) • HBED/Fe^3+: high concentration (0.9 g of the chelated Fe/tree) • control trial: without Fe
The chelate solutions were dosed directly to the ground below the dripper. In this case, the whole dose of the chelates were applied in one portion. The symptoms of chlorosis were visible at the beginning of the experiment.
The samples for determination of the SPAD index of leaves were taken approximately every two weeks (on day 0, 20, 40 and 63 after application of the chelates).

[3] = 0.45 g of the chelated Fe/tree, day 14 after application
[4] = 0.45 g of the chelated Fe/tree, day 29 after application
[5] = 0.45 g of the chelated Fe/tree, day 44 after application
[6] = 0.45 g of the chelated Fe/tree, day 61 after application
[7] = 0.45 g of the chelated Fe/tree, day 88 after application
[8] = 0.45 g of the chelated Fe/tree, day 99 after application
[9] = 0.9 g of the chelated Fe/tree, day 14 after application
[10] = 0.9 g of the chelated Fe/tree, day 29 after application
[11] = 0.9 g of the chelated Fe/tree, day 44 after application
[12] = 0.9 g of the chelated Fe/tree, day 61 after application
[13] = 0.9 g of the chelated Fe/tree, day 88 after application
[14] = 0.9 g of the chelated Fe/tree, day 99 after application

| SMILES | The SPAD index of the fructifying branches [1, 9] | The SPAD index of the non-fructifying branches [1, 9] | The SPAD index of the fructifying branches [1, 10] | The SPAD index of the non-fructifying branches [1, 10] | The SPAD index of the fructifying branches [1, 11] | The SPAD index of the non-fructifying branches [1, 11] | The SPAD index of the fructifying branches [1, 12] | The SPAD index of the non-fructifying branches [1, 12] | The SPAD index of the fructifying branches [1, 13] | The SPAD index of the non-fructifying branches [1, 13] | The SPAD index of the fructifying branches [1, 14] | The SPAD index of the non-fructifying branches [1, 14] | ΔSPAD index of leaves ([2]; day 0 after application) | ΔSPAD index of leaves ([2]; day 20 after application) | ΔSPAD index of leaves ([2]; day 40 after application) | ΔSPAD index of leaves ([2]; day 63 after application) | further results |
| --- | --- | --- | --- | --- | --- | --- | --- | --- | --- | --- | --- | --- | --- | --- | --- | --- | --- |
| O=C([O-])CN(CCN(CC(=O)[O-])Cc1ccccc1[O-])Cc1ccccc1[O-].[Fe+3].[Na+] [HBED/Fe^3+] | 35.45 | 35.69 | 37.91 | 35.77 | 37.27 | 36.54 | 37.64 | 33.69 | 39.73 | 39.00 | 37.27 | 37.46 | 0 | 11.50 | 16.75 | 16.23 | The SPAD index of the fructifying branches [1, 3]: 36.46; The SPAD index of the non-fructifying branches [1, 3]: 34.39; The SPAD index of the fructifying branches [1, 4]: 37.82; The SPAD index of the non-fructifying branches [1, 4]: 36.46; The SPAD index of the fructifying branches [1, 5]: 37.09; The SPAD index of the non-fructifying branches [1, 5]: 34.46; The SPAD index of the fructifying branches [1, 6]: 36.54; The SPAD index of the non-fructifying branches [1, 6]: 34.69; The SPAD index of the fructifying branches [1, 7]: 38.64; The SPAD index of the non-fructifying branches [1, 7]: 37.46; The SPAD index of the fructifying branches [1, 8]: 37.36; The SPAD index of the non-fructifying branches [1, 8]: 36.54; SPAD index values compared with EDDHA/Fe3+ ([1]; fructifying and non-fructifying branches, Tables 3 and 4): comparable; Effect on symptoms of chlorosis ([1]; testing field No. 1): effectively reduces the symptoms of chlorosis; ΔSPAD index compared with EDDHA/Fe3+ ([2]; Table 5): does not show any significant differences; Use against iron deficiencies ([2]; soils of alkaline pH and high concentration of calcium ions): may be successfully used against iron deficiencies |
| O=C([O-])C(NCCNC(C(=O)[O-])c1ccccc1[O-])c1ccccc1[O-].[Fe+3] (stereo not drawn) [EDDHA/Fe^3+, reference compound] | 36.00 | 35.69 | 37.00 | 37.77 | 37.82 | 36.23 | 37.82 | 35.15 | 39.09 | 37.38 | 38.91 | 36.92 | 0 | 13.00 | 17.50 | 17.25 |  |

— US8629293B2, “Process for the preparation of FE(III) chelates of N,N′-DI(2-hydroxybenzyl)-ethylenediamine-N,N′-diacetic acid and its derivatives” (Przedsiebiorstwo Produkcyjno-Consultingowe Adob SP. Z O.O. …, priority 2009, dated 2014)
